Where “and” joins values, the source holds several entries; their conditions need not be identical. Identical values can stand only once.
Legend:
[1] = Metabolic profiling of 14C-3APS in rats; type: in vivo, male Sprague-Dawley rats
Procedure: (§1) Three single dose studies were conducted in mice, rats and dogs to determine the metabolic profile of ^14C-3APS in plasma, urine and feces. In the first study, twenty-seven male CD-1 mice received a single dose of 100 mg/kg (20 μCi/animal) of ^14C-3APS by oral gavage. Blood samples (3 animals/time point) were collected for 12 hr following drug administration while urine and feces (3 animals/time point) samples were collected for 96 hr. In the second study, eight male Sprague-Dawley rats received a single dose of 100 mg/kg (50 μCi/animal) of ^14C-3APS by oral gavage while in the third study, three male Beagle dogs received a single dose of 100 mg/kg (30 μCi/kg) of ^14C-3APS by oral gavage. For the rat and dog studies, blood samples were collected for 24 hr following drug administration while urine and feces samples were collected for 72 hr. All samples were analyzed for total radioactivity using appropriate sample preparation procedures and scintillation counting. Plasma and urine samples were also analyzed for 3APS and 3APS metabolites (2-carboxyethanesulfonic acid, 3-hydroxy-1-propanesulfonic acid and 3-acetylamino-1-propanesulfonic acid) concentrations using qualified HPLC and MS/MS methods.

[2] = Single oral and IV administration of 14C-3APS to rats; type: in vivo, male Sprague-Dawley rats; settings: for AUC0-∞ / AUC(0-inf): 100 mg/kg 14C-3APS, rats, 100 mg/kg; for AUC(0-inf): male, Sprague-Dawley, rat, plasma
Procedure: The purpose of this study was to investigate the absorption, metabolism and excretion profiles of ^14C-3APS following a single intravenous bolus and oral administration to rats. Thirty-six male Sprague-Dawley rats received a single 100 mg/kg (˜50 μCi/animal) dose of ^14C-3APS by an IV bolus injection (water or isotonic saline solution) and an additional 36 male rats received the same dose level by oral gavage (in water). Blood, urine, feces, brain and CSF samples were collected for up to 72 hr following dose administration. Plasma, urine, brain and CSF concentrations of 3APS and 2-carboxyethanesulfonic acid (3APS major metabolite) were measured using LC and MS/MS detection method. Plasma, urine, feces, brain and CSF samples were analyzed for total radioactivity using appropriate sample preparation procedures and scintillation counting.

[3] = Metabolic profiling of 14C-3APS in mice; type: in vivo, male CD-1 mice
Procedure: as §1

[4] = Metabolic profiling of 14C-3APS in dogs; type: in vivo, male Beagle dogs
Procedure: as §1

[5] = Human whole blood stability; type: in vitro ADME; settings: 37° C.
Procedure: (§2) Test compounds were incubated for a total of 240 minutes at 37° C. in whole mouse and whole human blood. The compounds were added at time-point 0 and sample aliquots were withdrawn at each time point (usually 0, 60 and 240 minutes). The samples were extracted using protein precipitation. Analysis of extracted samples was achieved using HPLC with MS detection. Several types of HPLC columns and mobile phase were used depending of the polarity of the compound. The compound stability was determined by the % of compound remaining at 240 minutes (peak response of compound at 240 minutes/peak response at 0 minutes×100).

[6] = Bioavailability of exemplary compounds in mice (3APS quantified in plasma); type: in vivo; settings: compared with 3APS
Procedure: Selected exemplary compounds were tested for bioavailability in mice. Bioavailability estimates are performed for 3APS after administration of molar equivalent the selected compounds. […] The animals are anesthetized with isoflurane before blood collection (approximately 45 sec). Samples are collected at 5, 30, 60, 120, 180, 240 and 360 min post intravenous administration and at 15, 30, 60, 120, 180, 240 and 360 min post oral administration. One animal is used to obtain a baseline sample (pre-dose sample). Blood samples are collected into Sarstedt™ micro tubes (EDTA KE/1.3 ml), kept on ice until centrifugation at 4° C. at a minimum speed of 3000 rpm (1620 G) for 10 min. Plasma samples are transferred into Eppendorf™ tubes, immediately placed on dry ice and stored at −80° C. Plasma samples are stored frozen at […] pending analysis.
Compounds in mouse plasma are extracted using protein precipitation. Quantitation of 3APS in mouse plasma matrix is achieved using LC-MS detection. Sample concentration is calculated using a calibration curve.

[7] = Mouse whole blood stability; type: in vitro ADME; settings: 37° C.
Procedure: as §2

[8] = tested on: primary rat neuron culture; experiment: In vitro metabolism of 3APS in primary rat neuron culture; type: in vitro ADME; settings: primary neuron culture media
Procedure: The metabolism of 3APS was also studied in vitro in different types of cellular models. In some cases, the metabolism of 3APS was compared with that of γ-amino butyric acid (GABA).
The conversion of 3APS to 2-carboxyethanesulfonic acid was time-dependent and cell concentration-dependent. Incubation of 3APS (400 μM initial concentration) for six days in the cell culture media (containing 800,000 cells) produced with 48 μM of 2-carboxyethanesulfonic acid. Under the same experimental conditions, 5.4 μM succinic acid was detected starting from GABA (400 μM initial concentration).

[9] = Absorption, excretion and plasma kinetics of 14C-3APS in humans; type: in vivo, human
From the text: Following the identification of 3APS metabolites, plasma and urine samples from this human AME study were reanalyzed for 3APS and 3APS metabolite (2-carboxyethanesulfonic acid, 3-hydroxy-1-propanesulfonic acid and 3-acetylamino-1-propanesulfonic acid) concentrations using qualified HPLC and MS/MS methods to determine the metabolic profile of ^14C-3APS in human.

[10] = PK brain and plasma levels of oral Compound A2 and 3-APS in mice; type: in vivo; settings: oral 0.18 mmol/kg
Procedure: Compounds A2 and 3-aminopropanesulfonic acid were tested for pharmacokinetic parameters in mice. Parmacokinetic parameters (Cmax, Tmax, T½, AUC) are evaluated for 3APS after administration of a molar equivalent of each compound. Blood samples (approximately 1 ml) and brain samples are collected from each of 3 animals at time points 5, 15, 30 minutes, 1, 2, 4, 6, 12, and 24 hours. […] A 2-fold increase in plasma concentration (Cmax) of 3-APS was observed when orally administering Compound A2 compared to 3-APS.

[11] = Rat plasma, single oral 100 mg/kg 14C-3APS
[12] = IV, individual animals 1001-1004
[13] = PO, individual animals 3001-3004
[14] = Mouse plasma, single oral 100 mg/kg 14C-3APS
[15] = Dog plasma, single oral 100 mg/kg 14C-3APS
[16] = Rat plasma, analyte after single oral 100 mg/kg 14C-3APS
[17] = male, Sprague-Dawley, rat, plasma, po, 100 mg/kg, Rat plasma, analyte after single oral 100 mg/kg 14C-3APS
[18] = Mouse plasma, analyte after single oral 100 mg/kg 14C-3APS
[19] = male, CD-1, mouse, plasma, po, 100 mg/kg, Mouse plasma, analyte after single oral 100 mg/kg 14C-3APS

NCCCS(=O)(=O)O [^14C-3APS]
Total Radioactivity AUC0-τ [1, 11]: 43.3 μmol eq · min/mL | Total Radioactivity AUC∞ [1, 11]: 45.2 μmol eq · min/mL | % of the dose excreted in urine as total radioactivity ([1]; rat, on average in all species): 60% | AUC0-∞ Total Radioactivity ([2]; IV, Mean): 1591 nmol eq · h/mL | AUC0-∞ Total Radioactivity [2, 12]: 1625 nmol eq · h/mL and 1588 nmol eq · h/mL and 1883 nmol eq · h/mL and 1266 nmol eq · h/mL | AUC0-∞ Total Radioactivity ([2]; PO, Mean): 749 nmol eq · h/mL | AUC0-∞ Total Radioactivity [2, 13]: 874 nmol eq · h/mL and 714 nmol eq · h/mL and 628 nmol eq · h/mL and 781 nmol eq · h/mL | Total Radioactivity AUC0-τ [3, 14]: 24.4 μmol eq · min/mL | Total Radioactivity AUC∞ [3, 14]: 25.0 μmol eq · min/mL | % of the dose excreted in urine as total radioactivity ([3]; mouse, on average in all species): 60% | Total Radioactivity AUC0-τ [4, 15]: 45.4 μmol eq · min/mL | Total Radioactivity AUC∞ [4, 15]: 108 μmol eq · min/mL | % of the dose excreted in urine as total radioactivity ([4]; dog, on average in all species): 60%

N[C@@H](CO)C(=O)NCCCS(=O)(=O)O [Compound A7]
Blood stability (% of compound remaining after 240 min.) Human Blood [5]: +++ (+++: >75%) | effect on bioavailability of 3APS [6]: increasing the bioavailability of 3APS | Blood stability (% of compound remaining after 240 min.) Mouse Blood [7]: +++ (+++: >75%)

C=CC(N)CCC(=O)O (stereo not shown) [vigabatrin]
effect on the conversion of 3APS to 2-carboxyethanesulfonic acid [8]: significantly inhibited

NCCCC[C@H](N)C(=O)NCCCS(=O)(=O)O [Compound A4]
Blood stability (% of compound remaining after 240 min.) Human Blood [5]: + (+: <30%) | effect on bioavailability of 3APS [6]: increasing the bioavailability of 3APS | Blood stability (% of compound remaining after 240 min.) Mouse Blood [7]: +++ (+++: >75%)

N[C@@H](COCc1ccccc1)C(=O)NCCCS(=O)(=O)O [Compound A18]
Blood stability (% of compound remaining after 240 min.) Human Blood [5]: + (+: <30%) | effect on bioavailability of 3APS [6]: increasing the bioavailability of 3APS | Blood stability (% of compound remaining after 240 min.) Mouse Blood [7]: + (+: <30%)

O=C(O)CCS(=O)(=O)O [2-carboxyethanesulfonic acid]
time of maximum plasma concentration ([9]; healthy subjects, analyte after oral 14C-3APS): 6.5 h | % of total radioactivity in plasma based on AUC0-τ ([9]; healthy subjects, oral 14C-3APS): 49% | % of total amount of radioactivity excreted in urine ([9]; human urine): 79% | AUC0-τ [1, 16]: 12.7 µmol·min/mL | AUC∞ [1, 16]: 13.6 µmol·min/mL | T1/2 ([1]; Rat plasma, analyte after single oral 100 mg/kg 14C-3APS, 100 mg/kg): 3.99 h | % of Total Radioactivity, Plasma ([1]; Rat, AUC0-∞ analyte/AUC total radioactivity, single oral 100 mg/kg 14C-3APS): 30% | % of Total Radioactivity, Urine ([1]; Rat, amount excreted, single oral 100 mg/kg 14C-3APS): 62% | Tmax [1, 17]: 4 h | half-life [1, 17]: ~4 h | Cmax ([1]; male, Sprague-Dawley, Rat plasma, analyte (3APS or metabolite) after single oral 100 mg/kg 14C-3APS): 23.4 µM | AUC0-∞ [2, 12]: 144 µM·h and 184 µM·h and 125 µM·h | % of total radioactivity (AUC0-∞ analyte/AUC total radioactivity) [2, 12]: 6.5% and 9.1% and 9.8% and 9.9% | AUC0-∞ [2, 13]: 153 µM·h and 177 µM·h and 229 µM·h | % of total radioactivity (AUC0-∞ analyte/AUC total radioactivity) [2, 13]: 26.5% and 21.4% and 28.2% and 29.3% | AUC(0-inf) ([2]; iv, Mean): 140 µM·h | AUC(0-inf) ([2]; iv, individual animals 1001-1004): 105 µM·h | AUC(0-inf) ([2]; po, Mean): 198 µM·h | AUC(0-inf) ([2]; po, individual animals 3001-3004): 232 µM·h | AUC0-τ [3, 18]: 7.26 µmol·min/mL | AUC∞ [3, 18]: 7.56 µmol·min/mL | % of Total Radioactivity, Plasma ([3]; Mouse, AUC0-∞ analyte/AUC total radioactivity, single oral 100 mg/kg 14C-3APS): 30% | % of Total Radioactivity, Urine ([3]; Mouse, amount excreted, single oral 100 mg/kg 14C-3APS, 100 mg/kg): 62% | Tmax [3, 19]: 2 h | half-life [3, 19]: ~2 h | Cmax ([3]; male, CD-1, Mouse plasma, analyte (3APS or metabolite) after single oral 100 mg/kg 14C-3APS): 18 µM | AUC0-τ ([4]; Dog plasma, analyte after single oral 100 mg/kg 14C-3APS): 30.5 µmol·min/mL | % of Total Radioactivity, Urine ([4]; Dog, amount excreted, single oral 100 mg/kg 14C-3APS, 100 mg/kg): 77% | Tmax ([4]; male, Beagle, dog, plasma, po, 100 mg/kg, Dog plasma, analyte after single oral 100 mg/kg 14C-3APS): 12 h | Cmax ([4]; male, Beagle, Dog plasma, analyte (3APS or metabolite) after single oral 100 mg/kg 14C-3APS): 31.2 µM

NCC1(CC(=O)O)CCCCC1 [gabapentin]
effect on the conversion of 3APS to 2-carboxyethanesulfonic acid [8]: no significant effect

CC(C)[C@H](N)C(=O)NCCCS(=O)(=O)O [Compound A2]
Brain concentration of 3-APS [10]: observed | effect on bioavailability of 3APS [6]: increasing the bioavailability of 3APS | Blood stability (% of compound remaining after 240 min.) Mouse Blood [7]: ++ (++: 30-75%)

O=C(CCNNC(=O)c1ccncc1)NCc1ccccc1 [Nialamide]
effect on the conversion of 3APS to 2-carboxyethanesulfonic acid [8]: reduced the formation of 2-carboxyethanesulfonic acid (from 3APS) but to a lesser extent

From patent US11020360B2, “Methods, compounds, compositions and vehicles for delivering 3-amino-1-propanesulfonic acid” (Bellus Health, Inc., priority 2006, dated 2021)
